Data on two compounds can be found in patent publication US20250250292A1, “DELIVERY SYSTEM TO TARGET GRAM-NEGATIVE BACTERIA” (priority 2022, published 2025).

One data set has as its system Haemophilus influenzae. As to the kind of experiment: Antibacterial in vitro activity (MIC). The format is cell-based. The method, then: (§1) These compounds were tested in an E. coli and Klebsiella strain to determine the change in OD600 as a function of concentration (FIG. 5, E. coli; FIG. 6, Klebsiella). The antibacterial activity of the compounds was further analyzed and activity was determine a variety of different bacterial strains.

The test system of another data set is Salmonella typhimurium. As to the kind of experiment: Antibacterial in vitro activity (MIC). In kind it is cell-based. To be noted: Salmonella enterica, ATCC 13311 / TYPHIMURIUM; isolate D0109, ATCC13311. The method, then:
as §1

The subject of data set [1] is Pseudomonas aeruginosa. Description: Antibacterial in vitro activity (MIC). In kind it is cell-based. How it is done: as §1
A further data set deals with Citrobacter freundii. As to the kind of experiment: Antibacterial in vitro activity (MIC). In kind it is cell-based. How it is done: as §1
The test system of a further data set is Enterobacter cloacae. Description: Antibacterial in vitro activity (MIC). The format is cell-based. How it is done: as §1
Another data set relates to Streptococcus pneumoniae. Description: Antibacterial in vitro activity (MIC). The format is cell-based. The method, then:
as §1

For a further data set, the system named is Escherichia coli. Description: Antibacterial in vitro activity (MIC). In kind it is cell-based. How it is done: as §1
For another data set, the system named is Proteus mirabilis. As to the kind of experiment: Antibacterial in vitro activity (MIC). In kind it is cell-based. The method, then:
as §1

Another data set has as its system Klebsiella pneumoniae. Description: Antibacterial in vitro activity (MIC). In kind it is cell-based. The method, then:
as §1

The test system of the next data set is Streptococcus pyogenes. Description: Antibacterial in vitro activity (MIC). The format is cell-based. To be noted: isolate B0780, Clinical isolate. The method, then: as §1
Another data set concerns Staphylococcus aureus. Description: Antibacterial in vitro activity (MIC). In kind it is cell-based. The method, then: as §1
Data set [2] relates to Acinetobacter baumannii. Description: Antibacterial in vitro activity (MIC). The format is cell-based. How it is done:
as §1

Another data set has as its system Streptococcus agalactiae. Description: Antibacterial in vitro activity (MIC). Particulars: isolate B0790, Clinical isolate. The format is cell-based. How it is done:
as §1

A further data set concerns Enterococcus faecium. Description: Antibacterial in vitro activity (MIC). In kind it is cell-based. To be noted: isolate D0459, Clinical isolate. The method, then:
as §1

Data set [3] relates to clinical isolates of Staphylococcus aureus (NR-49120, NR-46413). As to the kind of experiment: Resazurin blue (alamarBlue) bacterial cell viability assay, gram-positive model. The format is cell-based. Particulars: clinical strains of Staphylococcus aureus. The method, then: (§2) To compare the efficacy of pleuromutilin and the pleuromulin-TPP^+ ester pro-drug (AP-8-159B) gram-negative and gram-positive pathogen model system were used. Thus, Escherichia coli (BL21(DE3) from New England Biolabs) was used as a model strain for gram-negative bacteria and clinical isolates of Staphylococcus aureus were used as the model system for gram-positive bacteria (NR-49120, NR-46413 obtained from BEI Resources). All strains were cultured at 37° C. overnight in Luria Bertani (LB) (BD 244610). For testing the drug sensitivity, bacteria were grown in RPMI medium containing 10% fetal bovine serum or human serum.
A resazurin blue assay (alamarBlue®) (Toté et al., 2009; Costa et al., 2021; Wannigama et al., 2019; Travnickova et al., 2019) was used to evaluate bacterial cell viability. Resazurin (7-hydroxy-10-oxidophenoxazin-10-ium-3-one, sodium) is a blue fluorogenic dye used as a redox indicator in cell viability and proliferation assays for bacteria, yeast, or mammalian cells. […] This simple fluorometric-based assay rapidly quantifies metabolically active bacterial cells. […] The positive control used evaluated media alone without bacterial culture to confirm there was no change from blue to red. The negative control evaluated the bacteria culture alone without added compound to provide a 100% growth control (red). […] Changes in fluorescence were measured on the Biotek Synergy 2 plate reader after an 8-hour incubation at 37° C. using an excitation filter range of 530-570 nm and an emission filter range of 590-620 nm. An increase in fluorescence intensity corresponded to bacterial growth and was quantified by comparison with untreated bacterial control samples. The ratio of (TThreshold (untreated)/TThreshold (prodrug-treated)) (where T=time) was used to quantify the change in bacterial growth. To minimize inter-experimental variations, TThreshold values were corrected by subtracting untreated control cultures to reach minimum detectable fluorescence. […]

Another data set has as its system MRC5 fibroblast cells. Description: Cel Titer Glo cytotoxicity in MRC5 cells. In kind it is cell-based. How it is done: In order to facilitate development of the TPP containing antibiotics, a series of TPP linkers were prepared and tested for their toxicity in MRC5 cells. This library of linkers are shown below: The toxicity of these linkers in MRC5 cells after a 72 hour incubation.

In data set [4] the test system is Escherichia coli (BL21(DE3)). As to the kind of experiment: Resazurin blue (alamarBlue) bacterial cell viability assay, gram-negative model. In kind it is cell-based. To be noted: E Coli BL21 (DE3). How it is done: as §2
A resazurin blue assay (alamarBlue®) (Toté et al., 2009; Costa et al., 2021; Wannigama et al., 2019; Travnickova et al., 2019) was used to evaluate bacterial cell viability. Resazurin (7-hydroxy-10-oxidophenoxazin-10-ium-3-one, sodium) is a blue fluorogenic dye used as a redox indicator in cell viability and proliferation assays for bacteria, yeast, or mammalian cells. The resazurin assay protocol is based on the reduction of oxidized non-fluorescent blue resazurin to a red fluorescent dye (resorufin), where NADPH dehydrogenase, without being bound by theory, is probably responsible for the transference of electrons from NADPH+H^+ to resazurin (Costa et al., 2021). The amount of resorufin produced is directly proportional to the number of living cells. This simple fluorometric-based assay rapidly quantifies metabolically active bacterial cells. Two controls were added to the plate to confirm the correct response from the resazurin. The positive control used evaluated media alone without bacterial culture to confirm there was no change from blue to red. The negative control evaluated the bacteria culture alone without added compound to provide a 100% growth control (red). Thus, resazurin sodium salt (Sigma R7017) was added to pleuromutilin or pleuromutilin-TPP+ prodrug treated bacterial samples at a final concentration of 0.02% and incubated for 8 hours at 37° C. Changes in fluorescence were measured on the Biotek Synergy 2 plate reader after an 8-hour incubation at 37° C. using an excitation filter range of 530-570 nm and an emission filter range of 590-620 nm. An increase in fluorescence intensity corresponded to bacterial growth and was quantified by comparison with untreated bacterial control samples. The ratio of (TThreshold (untreated)/TThreshold (prodrug-treated)) (where T=time) was used to quantify the change in bacterial growth. To minimize inter-experimental variations, TThreshold values were corrected by subtracting untreated control cultures to reach minimum detectable fluorescence. At the end of the experiment, wells were visualized for changes in color from blue (inviable bacteria) to red (viable bacteria) and a picture was taken.
(Alamar Blue is a resazurin reagent that responds to reducing activity.)

In data set [5] the test system is Acinetobacter baumannii. To be noted: McCarthy, 2021; cited from earlier work.
The subject of a further data set is E. faecalis. Particulars: McCarthy, 2021; cited from earlier work.
Data set [6] concerns Pseudomonas aeruginosa. To be noted: McCarthy, 2021; cited from earlier work.

For orientation: IC50 means the concentration that inhibits the measured activity by half. Read a high IC50 as lower potency.

Like-named read-outs stand apart in the source and are kept apart here. Where only a bound is given, the exact number is not on record here.

In the case of `C=C[C@]1(C)C[C@@H](OC(=O)COC(=O)c2ccc(C[P+](c3ccccc3)(c3ccccc3)c3ccccc3)cc2)[C@]2(C)CC[C@@H](C)[C@@]3(CCC(=O)[C@@H]23)[C@@H](C)[C@@H]1O` [AP-8-159B], the MIC with Haemophilus influenzae (ATCC49247, isolate B0035, ATCC 49247) is 1 µg/mL; in the data set on Haemophilus influenzae (isolate B0126, Clinical isolate), 0.25 µg/mL; against Salmonella typhimurium, 16 µg/mL; in the data set with Pseudomonas aeruginosa [1] (ATCC27853, isolate B0015, ATCC 27853), 8 µg/mL; against Pseudomonas aeruginosa [1] (ATCC29511, isolate B0016, ATCC 29511) it was 16 µg/mL; in the data set on Pseudomonas aeruginosa [1] (isolate B0367, Clinical isolate), 4 µg/mL. Further, the MIC was 64 µg/mL in the data set on Citrobacter freundii (isolate B0271, Clinical isolate); 64 µg/mL against Citrobacter freundii (isolate B0286, AKH Vienna); greater than 128 µg/mL in the data set on Enterobacter cloacae (isolate D1089, Clinical isolate); greater than 128 µg/mL in the data set on Enterobacter cloacae (isolate D1090, Clinical isolate); 0.5 µg/mL with Streptococcus pneumoniae (isolate B0078, Clinical isolate); no more than 0.12 µg/mL against Streptococcus pneumoniae (isolate B0415, Clinical isolate). In addition, the MIC worked out at 8 µg/mL in the data set with Escherichia coli (ATCC25922, isolate B0001, ATCC 25922, read-out: MIC); 32 µg/mL with Escherichia coli (isolate B0158, AcrAB-TolC efflux pump WT, read-out: MIC); 0.5 µg/mL in the data set on Escherichia coli (isolate B0159, Efflux pump deficient (ΔtolC)); 1 µg/mL in the data set on Escherichia coli (isolate B0429, Efflux pump deficient (ΔacrAB)); 16 µg/mL in the data set with Escherichia coli (isolate B1098, Clinical isolate, read-out: MIC); 16 µg/mL with Escherichia coli (isolate D0120, Clinical isolate, read-out: MIC). Moreover, the MIC in the data set on Proteus mirabilis (Proteus mirabilis, isolate D1301, Clinical isolate, read-out: MIC) is 32 µg/mL; in the data set with Proteus mirabilis (isolate D1300, Clinical isolate), 32 µg/mL; with Klebsiella pneumoniae (ATCC11228, isolate B0032, ATCC 11228), greater than 128 µg/mL; against Klebsiella pneumoniae (ATCC29519, isolate D0033, ATCC 29519), 128 µg/mL; against Klebsiella pneumoniae (ATCC43816, isolate B0305, ATCC 43816), 128 µg/mL; in the data set on Streptococcus pyogenes it was 0.12 µg/mL. Besides, the MIC against Staphylococcus aureus (ATCC49951, isolate B0009, ATCC 49951) was no more than 0.12 µg/mL; in the data set on Staphylococcus aureus (isolate B0029, Clinical isolate), 0.5 µg/mL; against Staphylococcus aureus (isolate B1325, Clinical isolates), 0.5 µg/mL; against Acinetobacter baumannii [2] (ATCC15473, isolate B0473, ATCC 15473), 64 µg/mL; against Acinetobacter baumannii [2] (isolate B1062, Clinical isolate) it was 128 µg/mL; against Streptococcus agalactiae, 0.06 µg/mL. In the data set on Enterococcus faecium, this compound displayed an MIC of 0.5 µg/mL. In data set [3], the “cytotoxic effect” value is recorded as “potent cytotoxic agents”. The compound further gave an IC50 with MRC5 fibroblast cells (Homo sapiens, Table 2, cytotoxicity in MRC5 fibroblast cells) of 4.67 µM. Besides, the “cytotoxicity” value with MRC5 fibroblast cells (normal MRC5 fibroblast cell lines) was “weak cytoxcity”. In addition, the cytotoxicity potency in [4] worked out at 1.65 µg/mL.

With `C=C[C@]1(C)C[C@@H](OC(=O)CS[C@@H]2CC[C@@H](N)C[C@H]2O)[C@]2(C)[C@H](C)CC[C@]3(CCC(=O)[C@H]32)[C@@H](C)[C@@H]1O` [Lefamulin], the “antibacterial activity” value with Acinetobacter baumannii [5], in the data set on E. faecalis and with Pseudomonas aeruginosa [6] was “lacks activity” each time.
